The record followed here is patent US7498336B2, “Deazaflavin compounds and methods of use thereof” (The United States of America as represented by the …, priority 2003, dated 2009).

SMILES strings stand for the structures. “Also recorded” adds a separate entry of the source.

For assay [1], the target named is T1, p53 pre-bound to GST-MDM2 (Homo sapiens, UniProt Q00987).
T1 construct: made in house; host or cells: GST-MDM2: bacteria; p53: SaOS-p53 inducible cells
Put plainly: In vitro p53 ubiquitination assay. Particulars: cellular p53 pre-bound to GST-MDM2, FIG. 2G. The assay is classed as biochemical. The procedure: d. In Vitro R53 Ubiguitination Assay
p53 protein from SaOS-p53 inducible cell lysate was purified from cells using GST-MDM2 (5 pmol) pre-bound to GS beads. Samples were then incubated with test compounds as above. Subsequently 2 μl rabbit E1, 1 μl UbcH5b, and 10 μg of ubiquitin were added. After reaction for 15 min at 23° C., samples were subject to SDS-PAGE under reducing conditions, transferred to nitrocellulose membranes and immunoblotted with anti-p53 (DO-1) followed by ECL using standard techniques.

Another assay deals with T2, Nedd4 (Homo sapiens, UniProt P46934).
T2 construct: made in house
T2 sequence (P46934 1-1319): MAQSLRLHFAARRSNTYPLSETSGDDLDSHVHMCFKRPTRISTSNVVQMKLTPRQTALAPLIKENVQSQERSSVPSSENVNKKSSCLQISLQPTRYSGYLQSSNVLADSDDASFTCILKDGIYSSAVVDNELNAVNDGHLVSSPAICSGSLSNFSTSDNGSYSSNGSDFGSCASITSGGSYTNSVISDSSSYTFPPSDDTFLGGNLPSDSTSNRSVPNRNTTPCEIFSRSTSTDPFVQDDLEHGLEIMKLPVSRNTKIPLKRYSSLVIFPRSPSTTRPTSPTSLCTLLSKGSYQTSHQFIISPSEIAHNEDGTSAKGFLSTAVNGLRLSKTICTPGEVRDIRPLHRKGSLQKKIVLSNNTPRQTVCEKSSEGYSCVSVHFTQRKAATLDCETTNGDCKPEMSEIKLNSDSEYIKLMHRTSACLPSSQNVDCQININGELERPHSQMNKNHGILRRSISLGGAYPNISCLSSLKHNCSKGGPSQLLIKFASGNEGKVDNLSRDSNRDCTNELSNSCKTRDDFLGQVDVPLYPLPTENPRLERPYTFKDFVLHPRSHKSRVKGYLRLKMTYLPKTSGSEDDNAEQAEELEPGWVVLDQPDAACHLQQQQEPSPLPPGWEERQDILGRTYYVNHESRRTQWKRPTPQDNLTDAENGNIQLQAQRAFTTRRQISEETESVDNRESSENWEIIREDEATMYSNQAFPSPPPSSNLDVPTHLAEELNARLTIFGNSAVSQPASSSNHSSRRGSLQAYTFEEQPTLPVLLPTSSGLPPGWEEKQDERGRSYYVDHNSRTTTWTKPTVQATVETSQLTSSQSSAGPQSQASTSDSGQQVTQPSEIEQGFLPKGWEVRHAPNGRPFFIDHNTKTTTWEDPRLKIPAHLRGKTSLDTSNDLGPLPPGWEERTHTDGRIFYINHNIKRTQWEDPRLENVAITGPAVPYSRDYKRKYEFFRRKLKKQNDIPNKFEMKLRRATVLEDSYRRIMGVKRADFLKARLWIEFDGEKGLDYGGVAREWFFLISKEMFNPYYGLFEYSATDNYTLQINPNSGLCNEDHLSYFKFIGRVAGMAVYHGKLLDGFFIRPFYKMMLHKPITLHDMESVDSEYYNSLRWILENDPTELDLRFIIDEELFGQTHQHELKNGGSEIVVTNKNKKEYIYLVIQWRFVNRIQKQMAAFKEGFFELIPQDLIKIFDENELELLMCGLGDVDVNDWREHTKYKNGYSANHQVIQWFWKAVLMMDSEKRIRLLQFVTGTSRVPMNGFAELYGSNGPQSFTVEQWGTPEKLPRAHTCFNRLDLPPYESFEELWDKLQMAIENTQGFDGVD
Nature of the assay: In vitro ubiquitination assay (E1+E2+E3) with unrelated E3 ligase. The note with it: gel assay, FIG. 2B, 2C. The format is biochemical. The protocol:
1 pmole per experimental point of bacterially expressed GST-MDM2 (or GST-Nedd) was coupled to glutathione Sepharose (GS) for 30 minutes at room temperature with tumbling, followed by 3× wash with 50 mM Tris pH 7.5. Following this, 20 μl of 1× buffer was added (40 μl 10× reaction buffer*, 40 μl 10× PCK**, 320 μl dH2O). The test compound in DMSO is then added to the desired concentration with an equal volume of DMSO used as a control. Samples are incubated with shaking for 1 hr at 23° C. To carry out the reaction, a pre-made cocktail of Rabbit E1 (Calbiochem #6620700)/UbcH5B/^32P Ub cocktail (1 μl/0.5 μl/1 μl) is added followed by 15 minutes shaking at 30° C. The reaction is terminated by addition of 8 μl 4× reducing SDS-PAGE loading buffer. After dissociating proteins from the beads at 100° C. for 2 minutes, samples are resolved on 6% PAGE followed by exposure of the dried gel to phosphor screen. Note: ^32P Ub is derived from GST-Ub that has been engineered to include a PKA phosphorylation site. This fusion protein is purified on glutathione Sepharose, phosphorylated, following this, the ^32P Ub ubiquitin is cleaved and purified away from the thrombin.

T1 sequence (Q00987 whole entry): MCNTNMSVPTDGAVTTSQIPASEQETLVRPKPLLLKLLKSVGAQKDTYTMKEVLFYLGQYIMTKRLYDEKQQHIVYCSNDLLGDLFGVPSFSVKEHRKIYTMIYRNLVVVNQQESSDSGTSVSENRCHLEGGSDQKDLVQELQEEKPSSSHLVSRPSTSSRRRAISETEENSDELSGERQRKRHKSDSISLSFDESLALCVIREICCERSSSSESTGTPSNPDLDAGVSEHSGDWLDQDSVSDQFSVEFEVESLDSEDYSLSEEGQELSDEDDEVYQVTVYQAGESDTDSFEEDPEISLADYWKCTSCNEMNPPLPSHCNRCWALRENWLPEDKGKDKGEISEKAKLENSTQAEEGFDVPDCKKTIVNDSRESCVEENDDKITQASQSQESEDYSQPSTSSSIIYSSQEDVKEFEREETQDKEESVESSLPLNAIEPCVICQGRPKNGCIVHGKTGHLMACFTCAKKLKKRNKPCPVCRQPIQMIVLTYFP
T1 sequence (P04637 whole entry partner): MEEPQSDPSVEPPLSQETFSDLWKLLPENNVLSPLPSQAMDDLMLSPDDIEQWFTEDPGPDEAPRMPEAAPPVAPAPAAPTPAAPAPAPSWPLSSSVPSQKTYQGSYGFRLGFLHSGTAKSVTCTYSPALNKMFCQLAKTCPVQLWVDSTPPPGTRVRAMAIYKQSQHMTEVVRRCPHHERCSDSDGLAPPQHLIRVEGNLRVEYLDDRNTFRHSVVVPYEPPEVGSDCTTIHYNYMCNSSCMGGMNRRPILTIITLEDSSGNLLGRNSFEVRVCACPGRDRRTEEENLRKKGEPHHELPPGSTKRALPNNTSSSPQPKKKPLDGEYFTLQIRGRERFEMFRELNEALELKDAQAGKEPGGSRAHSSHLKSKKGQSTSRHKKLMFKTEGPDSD

`O=c1nc2n(-c3cccc(Cl)c3)c3ccc([N+](=O)[O-])cc3cc-2c(=O)[nH]1` [Compound 98C07, 10-(-3-chloro-phenyl)-7-nitro-10H-pyrimido[4,5-b]quinoline-2,4-dione]: the “inhibition of p53 ubiquitination by MDM2” value in assay [1] is on record as “significant dose-dependent inhibition of p53 ubiquitination”. At Nedd4, the “selectivity of inhibition of MDM2 versus unrelated E3 ligase Nedd4” value was “shows some selectivity as an inhibitor of MDM2; also recorded: specificity of MDM2”.
